Here are results for 14 compounds from US9708331B2, “Metabotrophic glutamate receptor 5 modulators and methods of use thereof” (SUNOVION PHARMACEUTICALS INC., priority 2011, dated 2017).

The target in series [1] is T1, mGluR5 (Homo sapiens, UniProt P41594). Kind of series: mGluR5 fold shift at a fixed compound concentration. Type of series: cell-based.
Series [2] concerns the target T1, mGluR5. The series can be described thus: mGluR5 PAM EC50 (positive allosteric modulator potency). Format: cell-based.

T1 sequence (P41594 21-1212): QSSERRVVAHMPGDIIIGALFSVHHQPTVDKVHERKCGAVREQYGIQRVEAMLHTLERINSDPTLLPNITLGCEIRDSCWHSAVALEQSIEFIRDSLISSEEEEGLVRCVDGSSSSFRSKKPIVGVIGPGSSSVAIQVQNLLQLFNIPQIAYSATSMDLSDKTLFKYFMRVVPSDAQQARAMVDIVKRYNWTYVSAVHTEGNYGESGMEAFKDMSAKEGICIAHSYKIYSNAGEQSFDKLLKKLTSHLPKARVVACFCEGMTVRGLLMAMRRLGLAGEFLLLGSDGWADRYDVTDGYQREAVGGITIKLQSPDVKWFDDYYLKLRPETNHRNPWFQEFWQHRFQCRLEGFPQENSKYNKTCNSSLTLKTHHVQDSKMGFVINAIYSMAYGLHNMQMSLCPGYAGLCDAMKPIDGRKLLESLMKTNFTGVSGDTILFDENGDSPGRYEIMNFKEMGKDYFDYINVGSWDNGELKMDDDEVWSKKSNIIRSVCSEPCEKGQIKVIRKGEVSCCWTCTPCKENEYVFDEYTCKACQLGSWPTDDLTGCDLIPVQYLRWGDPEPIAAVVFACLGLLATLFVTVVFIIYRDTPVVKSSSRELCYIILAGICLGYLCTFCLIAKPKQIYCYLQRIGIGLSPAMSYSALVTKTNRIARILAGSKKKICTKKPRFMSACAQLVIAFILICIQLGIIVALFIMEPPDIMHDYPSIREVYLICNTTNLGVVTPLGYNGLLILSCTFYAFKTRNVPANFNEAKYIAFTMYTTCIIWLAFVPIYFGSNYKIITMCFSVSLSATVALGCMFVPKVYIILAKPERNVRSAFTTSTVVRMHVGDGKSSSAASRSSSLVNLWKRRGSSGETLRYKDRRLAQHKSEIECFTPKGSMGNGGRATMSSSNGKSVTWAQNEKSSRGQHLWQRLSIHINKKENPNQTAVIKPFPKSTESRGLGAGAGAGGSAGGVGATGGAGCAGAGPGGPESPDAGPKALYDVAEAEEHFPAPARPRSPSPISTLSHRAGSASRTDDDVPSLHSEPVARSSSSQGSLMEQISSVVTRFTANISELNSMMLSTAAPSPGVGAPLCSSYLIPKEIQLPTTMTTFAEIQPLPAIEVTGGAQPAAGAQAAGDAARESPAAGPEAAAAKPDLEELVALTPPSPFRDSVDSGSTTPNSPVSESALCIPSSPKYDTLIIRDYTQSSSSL

Take `CC1(C)CCc2nc3cc(C#Cc4cccc(C#N)c4)ccc3c(=O)n2C1` [Example 2.45, 3-((8,8-dimethyl-11-oxo-7,8,9,11-tetrahydro-6H-pyrido[2,1-b]quinazolin-3-yl)ethynyl)benzonitrile]: at mGluR5 [1], the “Fold shift at 1 μM” value was “++ (++ is between 2.0 and 2.9)”. At mGluR5 [2], this compound showed an EC50 of 10 to 30 nM.
In the case of `Cc1ncc(C#Cc2ccc3c(=O)n4c(nc3c2)CCC(C)(C)C4)s1` [Example 2.49, 8,8-dimethyl-3-((2-methylthiazol-5-yl)ethynyl)-8,9-dihydro-6H-pyrido[2,1-b]quinazolin-11(7H)-one], the “Fold shift at 1 μM” value at mGluR5 [1] is “++ (++ is between 2.0 and 2.9)”. Also, at mGluR5 [2], the EC50 is < 10 nM.
Take `O=c1c2ccc(C#Cc3ccccn3)cc2nc2n1CC1(CC2)COC1` [Example 2.58, 3′-(pyridin-2-ylethynyl)-6′,7′-dihydrospiro[oxetane-3,8′-pyrido[2,1-b]quinazolin]-11′(9′H)-one]: the “Fold shift at 1 μM” value at mGluR5 [1] is “+++ (+++>3)”. The same compound returned an EC50 at mGluR5 [2] of 10 to 30 nM.
On the same counts, the results for `O=c1c2ccc(C#Cc3ccccn3)cc2nc2n1CC1(CC2)CC1(F)F` (stereo not shown) [Example 2.68, 2,2-difluoro-3′-(pyridin-2-ylethynyl)-6′,7′-dihydrospiro[cyclopropane-1,8′-pyrido[2,1-b]quinazolin]-11′(9′H)-one] are “+++ (+++>3)” and < 10 nM.
Take `CC12Cn3c(nc4cc(C#Cc5ccccn5)ccc4c3=O)CC1C2(F)F` (stereo not shown) [Example 2.69, 1,1-difluoro-10a-methyl-5-(pyridin-2-ylethynyl)-1a,2,10,10a-tetrahydrocyclopropa[4,5]pyrido [2,1-b]quinazolin-8(1H)-one]: at mGluR5 [1], the “Fold shift at 1 μM” value is on record as “+++ (+++>3)”. For the same compound, the concentration giving a half-maximal response (EC50) on mGluR5 [2] is < 10 nM.
Consider `CC1(CF)CCc2nc3cc(C#Cc4ccccn4)ccc3c(=O)n2C1` (stereo not shown) [Example 2.96, 8-(fluoromethyl)-8-methyl-3-(pyridin-2-ylethynyl)-8,9-dihydro-6H-pyrido[2,1-b]quinazolin-11(7H)-one], for which the “Fold shift at 1 μM” value at mGluR5 [1] was “+++ (+++>3)”. In addition, the EC50 on mGluR5 [2] was < 10 nM.
On to `COCC1(C)CCc2nc3cc(C#Cc4ccccn4)ccc3c(=O)n2C1` (stereo not shown) [Example 2.97, 8-(methoxymethyl)-8-methyl-3-(pyridin-2-ylethynyl)-8,9-dihydro-6H-pyrido[2,1-b]quinazolin-11(7H)-one], for which the “Fold shift at 1 μM” value on mGluR5 [1] is “+++ (+++>3)”. Besides, at mGluR5 [2], the half-maximal effective concentration (EC50) was in the range of 10 to 30 nM.
For `CC12Cc3nc4cc(C#Cc5ccccn5)ccc4c(=O)n3CC1C2` (stereo not shown) [Example 2.98, 1a-methyl-5-(pyridin-2-ylethynyl)-1a,2,10,10a-tetrahydrocyclopropa[4,5]pyrido [2,1-b]quinazolin-8(1H)-one], in that order: “+++ (+++>3)” and < 10 nM.
Turning to `COc1cccc(C#Cc2ccc3c(=O)n4c(nc3c2)CCC(C)(C)C4)n1` [Example 2.101, 3-((6-methoxypyridin-2-yl)ethynyl)-8,8-dimethyl-8,9-dihydro-6H-pyrido[2,1-b]quinazolin-11(7H)-one], the “Fold shift at 1 μM” value on mGluR5 [1] was “++ (++ is between 2.0 and 2.9)”. Besides, the concentration for a half-maximal effect (EC50) on mGluR5 [2] lay within 30 to 100 nM.
In the case of `COc1ccnc(C#Cc2ccc3c(=O)n4c(nc3c2)CCC(C)(C)C4)c1` [Example 2.102, 3-((4-methoxypyridin-2-yl)ethynyl)-8,8-dimethyl-8,9-dihydro-6H-pyrido[2,1-b]quinazolin-11(7H)-one], at mGluR5 [1], the “Fold shift at 1 μM” value is “+ (+ is between 1.5 and 1.9)”. Also, the EC50 at mGluR5 [2] was in the range of 30 to 100 nM.
Regarding `CC1(C)CCc2nc3cc(C#Cc4cccnn4)ccc3c(=O)n2C1` [Example 2.105, 8,8-dimethyl-3-(pyridazin-3-ylethynyl)-8,9-dihydro-6H-pyrido[2,1-b]quinazolin-11(7H)-one], on mGluR5 [1], the “Fold shift at 1 μM” value was “++ (++ is between 2.0 and 2.9)”. Moreover, the EC50 at mGluR5 [2] was in the range of 30 to 100 nM.
Regarding `O=c1c2ccc(C#Cc3ccccn3)cc2nc2n1CCC(F)(F)CC2` [Example 3.15, 8,8-difluoro-3-(pyridin-2-ylethynyl)-7,8,9,10-tetrahydroazepino[2,1-b]quinazolin-12(6H)-one], at mGluR5 [1] (at 10 μM), the “Fold shift at 10 μM” value is on record as “+++ (+++>3)”. Also, at mGluR5 [2], the concentration for a half-maximal effect (EC50) was 10 to 30 nM.
Turning to `O=c1c2ccc(C#Cc3ccccn3)cc2nc2n1CC1(CCC2)CC1(F)F` (stereo not shown) [Example 3.40, 2′,2′-difluoro-3-(pyridin-2-ylethynyl)-7,8-dihydro-6H-spiro[azepino[2,1-b]quinazoline-9,1′-cyclopropan]-12(10H)-one], the “Fold shift at 1 μM” value at mGluR5 [1] is listed as “+++ (+++>3)”. Also, at mGluR5 [2], the half-maximal effective concentration (EC50) is 10 to 30 nM.
Turning to `CC1(C)CCn2c(nc3cc(C(=O)Nc4ccccn4)ccc3c2=O)C1` [Example 4.11, 7,7-dimethyl-11-oxo-N-(pyridin-2-yl)-7,8,9,11-tetrahydro-6H-pyrido[2,1-b]quinazoline-3-carboxamide], the “Fold shift at 1 μM” value on mGluR5 [1] was “+ (+ is between 1.5 and 1.9)”. The compound also had an EC50 on mGluR5 [2] of 100 to 300 nM.
